Laboratory results reported in patent publication US8791162B2, “Cathepsin cysteine protease inhibitors” (Merck Sharp & Dohme Corp., priority 2011, dated 2014).

Tests used:
[1] = Rhesus IV Pharmacokinetics; format: in vivo, rhesus monkeys; settings: for % AUC Extrap. / AUC(0-inf) / C0 / AUC / clearance / Vd / half-life: male rhesus monkeys; for concentration at 0.5 h: 0.50 hours; for AUC: read-out: AUC(0-x); for clearance: read-out: Cl (plasma clearance); for Vd: read-out: Vdss; for half-life: read-out: t½ (converted)
Protocol: The study was conducted in male rhesus monkeys (n=4) via the intravenous route using a deuteriated (D6-Odanacatib, or D6-ODN) and non-deuteriated (D0-Odanacatib, or D0-ODN) forms of odanacatib. The dosing solution was prepared in DMSO at a concentration of 7.5 mg/mL and the dose volume was 0.1 mL/kg. Each monkey was administered a 0.75 mg/kg dose each of D6-ODN and D0-ODN as a mixture. Animals were fasted overnight prior to dosing. The dose was administered via the saphenous vein. […] Plasma was stored at −70° C. until analysis.
The lower limit of quantitation was 0.48 nM.
Pharmacokinetic parameters were obtained using non-compartmental methods (Watson®). The plasma clearance (CLP) was calculated as the IV dose divided by the area under the plasma concentration versus time curve (AUC0-∞). AUC was determined using logarithmic trapezoidal interpolation.

human Cat K = target: T1, human Cat K (Homo sapiens, UniProt P43235); settings: human Cat K vs other human cathepsins; cited from earlier work
T1 sequence (P43235 115-329): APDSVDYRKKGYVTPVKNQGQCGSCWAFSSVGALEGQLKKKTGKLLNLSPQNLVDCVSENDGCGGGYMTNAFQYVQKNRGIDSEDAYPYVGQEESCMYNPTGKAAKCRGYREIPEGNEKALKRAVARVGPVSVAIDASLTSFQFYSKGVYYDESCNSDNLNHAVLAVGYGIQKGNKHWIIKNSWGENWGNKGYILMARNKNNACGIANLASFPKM

[2] = rhesus monkey, in vivo, po, 2.5 mg/kg
Protocol: The pharmacokinetic evaluation was carried out following oral administration to monkeys of the following ODN forms and formulations: D6-ODN spray-dried formulation (A), D6-ODN conventional formulation (B), D0-ODN spray-dried formulation (C) and D0-ODN conventional formulation (D).
The deuterated analog of odanacatib (D6-ODN) as well as ODN (D0-ODN) were prepared either as spray-dried or conventional (crystalline) formulations for pharmacokinetic study in monkeys. The spray-dried form was suspended in water, while the crystalline drug was dissolved in Imwitor:Tween for oral administration to monkeys. Spray-dried D6-ODN (A), crystalline D6-ODN (B), spray-dried D0-ODN (C) and crystalline D0-ODN (D) were dosed to monkeys (n=4) in a cross-over fashion. Each monkey was administered a ˜2.5 mg/kg dose each of forms B and D as a mixture in period one, and forms C and A were then dosed after a washout period. […]
The concentrations of D6-ODN and D0-ODN in plasma were determined by LC-MS/MS in the positive ion mode using the Turbo Ion Spray interface. […] Quantification was based on selected reaction monitoring of the following precursor/product ion pairs: m/z 526.3→313.0 (D0-ODN); m/z 532.2→313.2 (D6-ODN); m/z 538.3→325.2 (^13C12-ODN). The lower limit of quantitation was 1.9 nM. […]

[3] = rhesus monkey, plasma, male rhesus monkeys n=4, 0.75 mg/kg IV
[4] = rhesus monkey, plasma, 0.75 mg/kg IV

CC(C)(F)C[C@H](N[C@@H](c1ccc(-c2ccc(S(C)(=O)=O)cc2)cc1)C(F)(F)F)C(=O)NC1(C#N)CC1 [Example D0-ODN, N^1-(1-cyanocyclopropyl)-4-fluoro-N^2-{(1S)-2,2,2-trifluoro-1-[4′-(methylsulfonyl)-1,1′-biphenyl-4-yl]ethyl}-L-leucinamide, reference compound]
% AUC Extrap. ([1]; 0.75 mg/kg IV): 0.25%
concentration at 0.08 h [1, 3]: 1.02 µM
concentration at 0.25 h [1, 3]: 0.947 µM
concentration at 0.5 h [1, 3]: 0.872 µM
concentration at 1 h [1, 3]: 0.854 µM
concentration at 4 h [1, 3]: 0.462 µM
concentration at 8 h [1, 3]: 0.25 µM
concentration at 12 h [1, 3]: 0.13 µM
concentration at 24 h [1, 3]: 0.0145 µM
concentration at 30 h [1, 3]: 0.00622 µM
concentration at 48 h [1, 3]: 0.00122 µM
AUC(0-inf) [1, 4]: 5.73 µM·h
C0 [1, 4]: 1.08 µM
AUC [1, 4]: 5.71 µM·h
clearance [1, 4]: 0.276 L/h/kg
Vd [1, 4]: 1.9 L/kg
half-life [1, 4]: 3.7 h
selectivity against all other known human cathepsins (human Cat K): ≥ 300 fold

[2H]C([2H])([2H])C(F)(C[C@H](N[C@@H](c1ccc(-c2ccc(S(C)(=O)=O)cc2)cc1)C(F)(F)F)C(=O)NC1(C#N)CC1)C([2H])([2H])[2H] [Example D6-ODN, (2S)—N-(1-cyanocyclopropyl)-5,5,5-trideuterio-4-fluoro-4-(trideuteriomethyl)-2-[[(1S)-2,2,2-trifluoro-1-[4-(4-methylsulfonylphenyl)phenyl]ethyl]amino]pentanamide]
% AUC Extrap. ([1]; 0.75 mg/kg IV): 1.7%
concentration at 0.08 h [1, 3]: 0.894 µM
concentration at 0.25 h [1, 3]: 0.839 µM
concentration at 0.5 h [1, 3]: 0.793 µM
concentration at 1 h [1, 3]: 0.831 µM
concentration at 4 h [1, 3]: 0.633 µM
concentration at 8 h [1, 3]: 0.633 µM
concentration at 12 h [1, 3]: 0.515 µM
concentration at 24 h [1, 3]: 0.273 µM
concentration at 30 h [1, 3]: 0.208 µM
concentration at 48 h [1, 3]: 0.0707 µM
concentration at 72 h ([1]; rhesus monkey, plasma, male rhesus monkeys n=4, 0.75 mg/kg IV, 72.00 hours): 0.0284 µM
concentration at 96 h ([1]; rhesus monkey, plasma, male rhesus monkeys n=4, 0.75 mg/kg IV, 96.00 hours): 0.0138 µM
AUC(0-inf) [1, 4]: 18 µM·h
C0 [1, 4]: 0.933 µM
AUC [1, 4]: 17.7 µM·h
clearance [1, 4]: 0.084 L/h/kg
Vd [1, 4]: 1.7 L/kg
half-life [1, 4]: 16 h
higher exposure compared to D0-ODN ([1]; rhesus monkeys, 0.75 mg/kg IV): 3 fold
longer half-life compared to D0-ODN ([1]; rhesus monkeys, 0.75 mg/kg IV): 4 fold
lower clearance compared to D0-ODN ([1]; rhesus monkeys, 0.75 mg/kg IV): 3 fold
increase in plasma elimination half-life of ODN by deuterium substitution [2]: about 2.5 fold
